Patent publication US20260014129A1, “MITOCHONDRIAL PYRUVATE METABOLISM INHIBITORS FOR TREATING CHRONIC MYELOID LEUKEMIA” (The University Court of the University of Glasgow, priority 2022, published 2026)

What was measured:
[1] = tested on: K562 CML cell line; test: 13C6 glucose tracing in K562 CML cell line; assay type: cell-based, human; conditions: K562, several concentrations
Method: (§1) For conjugation of palmitate, a 20 mM stock was made in 100% EtOH. This was incubated on a shaking heater, 60° C. until the solution clarified. The palmitate was then added to 10% BSA (ultra-fatty acid free in EBSS, Roche, 03117057001) to give a palmitate:BSA ratio of 1:3 BSA. This solution was left for 15 min in water bath (37° C.), and then added to final concentration in complete medium. For cell line experiments, the medium was RPMI with 10% dialysed FBS and 1% penicillin/streptomycin. For tracing experiments 11 mM ^13C6 glucose was added to glucose-free RPMI.
(§2) Biological and technical replicates were processed through Autoplotter (56) and natural abundance was corrected for. Fraction of enrichment was calculated as m+2 and above. For CML samples treated with or without imatinib, multiple paired T-tests were conducted on Log 10 transformed values in Graphpad Prism. The correction for multiple comparisons was the two-stage step-up method of Benjamini, Krieger and Yekutieli with an FDR (Q) value of 10%. For volcano plots Log 10 FC vs Log 10 (q value) are plotted with q values>5% in red and >10% in blue. For normal vs CML comparisons, the process was the same with the exception that unpaired t-tests were used. For PC activity in normal vs CML, this is denoted by fraction m+3. For imatinib vs untreated we look at relative activity to PDH. IE., the m+3/m+2 ratio and conducted multiple t-tests with correction for multiple comparisons being the two-stage step-up method of Benjamini, Krieger and Yekutieli with an FDR (Q) value of 10%. To examine contribution to carbon pool we corrected contribution of each isotopologue by the number of carbons it contributes to a given metabolite, i.e., for glutamine contribution from m+5 is greater than m+3. Note that for cell line experiments standard deviation is shown.

[2] = tested on: CML CD34+ cells; test: LC-MS steady state metabolite analysis of primary CML CD34+ cells; assay type: cell-based, human; conditions: nilotinib treatment, data not shown
Method: (§3) Cells were counted using a CASY counter with the following parameters: E-cur 7.5-22.5, N-cur 5.25-20.5. Cell number was multiplied by peak volume (size) and this number was used to calculate volume of solvent to extract in. Cells were pelleted by centrifugation (400 RCF, 10 minutes, room temperature) at which medium was removed for YSI analysis. Cells were then washed twice with ice cold PBS (Calcium and Magnesium free: Thermo Fisher Scientific) with pulse centrifugation (12,000RCF, 15 seconds, 4° C.) used between and after washes. Cells were then extracted in LC-grade ACN:MeOH:H2O solvent (−20° C., 5:3:2) by disrupting the pellet by pipetting followed by a 5 second vortex. Finally, debris was pelleted by centrifugation (16,000RCF, 10 minutes, 4° C.), supernatant transferred to LC-MS glass vials that were stored at −80° C. until analysis.
The LC system composed of a ZIC-pHILIC column (SeQuant, 150×2.1 mm, 5 μm, Merck KGaA) with a ZIC-pHILIC guard column (SeQuant, 20×2.1 mm) with an UltiMate 3000 HPLC system (Thermo Fisher Scientific). The aqueous mobile-phase solvent was 20 mM ammonium carbonate-0.1% ammonium hydroxide solution and with acetonitrile being used for organic mobile phase. A linear biphasic LC gradient was conducted from 80% organic to 80% aqueous for 15 min for a total run time of 22 min. The column temperature was maintained at 45° C. flow rate set to 200 μL/min.
The MS used in this study was a qExactive Plus Orbitrap Mass Spectrometer (Thermo Fisher Scientific) operating in polarity switching mode. The MS set up was calibrated using a custom CALMIX in both ionization modes before analysis and a tune file targeted towards the lower m/z range was used. Full scan (MS1) data was acquired in both ionization modes in profile mode at 70,000 resolution (at m/z range 75-1000), an automatic gain control (AGC) target of 1×10^6 (max fill time of 250 ms), with spray voltages +4.5 kV (capillary +50V, tube: […], skimmer: +20V) and −3.5 kV (capillary −50V, tube: […], skimmer: −20V) and s-lens RF level of 50 for the front optics. The capillary temperature 375° C., probe temperature 50′C, sheath gas flow rate 25, auxiliary gas flow rate 15a.u. 15 and sweep gas flow rate of 1a.u.
(§4) The peak areas of different metabolites were determined using Tracefinder 4.1 software (Thermo Fisher Scientific). Metabolites were identified by accurate mass of the singly charged ion and by known retention times on the pHILIC column. A commercially available standard compound mix (Merck: MSMLS-1EA) had been analysed previously on our LC-MS system to determine accurate ion masses and retention times. The 13C labelling was determined by quantifying peak areas for the accurate mass of all isotopologues of each metabolite.
Two independent experiments were performed, data normalised to first sample in each experiment, processed through Autoplotter (56), samples as experiments, and normalised data as replicates. […] For MSDC-0160 treated samples a batch correction (to non-drug control) was used prior to analysis using Metabonalyst. Volcano plots were generated, and an FDR adjusted t-test threshold 0.1 was utilised. Note both fold changes and p-values are log transformed. Top-25 scoring metabolites are included in heatmap.

[3] = tested on: CML CD34+ cells; test: 13C stable isotope tracing (glucose, glutamine, palmitate) in primary CML CD34+ cells; assay type: cell-based, human; conditions: nilotinib treatment, data not shown
Method: as §1, §3, §4
as §2, with “10%.” for “10%. To examine contribution to carbon pool we corrected contribution of each isotopologue by the number of carbons it contributes to a given metabolite, i.e., for glutamine contribution from m+5 is greater than m+3. Note that for cell line experiments standard deviation is shown.”

[4] = tested on: phospho-AMPK; conditions: previously shown (ref 42); cited from earlier work
[5] = tested on: CML CD34+ cells; test: Patient-derived xenograft of CML CD34+ cells in NRG-W41 mice, bone marrow flow cytometry; assay type: in vivo, human; conditions: 4 weeks
Method: Treatment was given for 4 weeks. For treatment with asciminib (ABL001) plus MSDC-0160, twelve weeks following transplant, drug treatment was started with both asciminib (Fisher Scientific Cat #1642956) dosed at 10 mg/kg/day (5 mg/kg BID); oral gavage and MSDC-0160 (Apex Biotechnology: Cat #B3702) dosed at 30 mg/kg; oral gavage once daily. Treatment was given for 4 weeks. At the respective endpoints, bone marrow cells were collected. This was done by placing inverted cut leg bones into 0.5 mL Eppendorf tubes with holes at bottom. These in turn were placed within 1.5 mL Eppendorf tubes containing PBS, centrifuged (12,000 RCF, 20 seconds). Cells were stained (300 μl/test) with anti-mouse (APC-Cy7 BD Biosciences: Cat #557659, RRID: AB_396774, 1 μl), anti-human CD45 (FITC; BD Biosciences: Cat #555482, RRID: AB_395874, 10 μl), anti-human CD34 (APC; BD Biosciences: Cat #555824, RRID: AB_398614, 2 μl) and anti-human CD38 (PerCP; BioLegend: Cat #303520, RRID: AB_893313, 2 μl) antibodies for flow cytometry analysis as described above.

[6] = tested on: K562 cells; test: Viability (Annexin V/7AAD) and CFC assays of vector control versus PC knockout K562 cells; assay type: cell-based, human; conditions: 72 hours; 600 nm imatinib or 100 nm omacetaxine
Method: (a) Western blot of PC and loading control (tubulin) from vector control or PC knockout K562 cells. (b) Proliferation of K562 cells from A. Shown is average and SEM from 3 independent experiments. (c) Fractional labelling from ^13C6 glucose into indicated metabolites of PC knockout cells are shown (n=3) after 24 hours. Plots were generated using Autoplotter, average and SD are plotted. Statistical analyses were conducted on the m+5 fraction. An ordinary one-way ANOVA was used with Dunnett's test used to correct for multiple comparisons. (d) Cells viability was measured using Annexin V and 7AAD. Cells were either left untreated (UT) or exposed for 72 hours to 600 nm imatinib or 100 nm omacetaxine (OMA). Shown is average and SEM from 4 independent experiments. An ordinary one-way ANOVA was used with Dunnett's test used to correct for multiple comparisons. (e) Colony Forming Cell (CFC) potential of control and […] cells. Cells were either left untreated (UT) or exposed for 72 hours to 600 nm imatinib. Shown is average and SEM from 4 independent experiments. An ordinary one-way ANOVA was used with Dunnett's test used to correct for multiple comparisons. […]

Structure (SMILES): N#C/C(=C\c1cn(-c2ccccc2)c2ccccc12)C(=O)O [UK-5099]
- labelled fractions in alpha-ketoglutarate (AKG) and AKG-derived glutamate [1]: reducing levels of all labelled fractions in these metabolites in a concentration-dependent manner
- glucose contribution to fraction of labelling ([1]; data not shown): concentration-dependent reduction

Structure (SMILES): Cc1cn(-c2cc(NC(=O)c3ccc(C)c(Nc4nccc(-c5cccnc5)n4)c3)cc(C(F)(F)F)c2)cn1 [nilotinib]
- total metabolite levels [2]: reduction
- 13C-glucose incorporation into TCA cycle metabolites [3]: reduction
- phospho-AMPK in CD34+ CML cells [4]: increase

Structure (SMILES): O=C(Nc1ccc(OC(F)(F)Cl)cc1)c1cnc(N2CC[C@@H](O)C2)c(-c2ccn[nH]2)c1 [ABL-001]
- engraftment of human CML cells in bone marrow ([5]; ABL-001 10 mg/kg/day (5 mg/kg BID), 12 weeks engraftment): variable increase in engraftment
- CD34+ cells in bone marrow ([5]; ABL-001 10 mg/kg/day): not affected

Structure (SMILES): COC(=O)C[C@](O)(CCCC(C)(C)O)C(=O)O[C@@H]1C(OC)=C[C@]23CCCN2CCc2cc4c(cc2[C@H]13)OCO4 [omacetaxine mepesuccinate]
- sensitisation of K562 to the drug by PC ablation, viability and CFC assays [6]: not observed
